Experimental data taken from article PMC4500456 (Journal of Medicinal Chemistry, 2015).

System: P. falciparum W2 (chloroquine resistant) strain
Test: In vitro activity against cultured W2 strain P. falciparum
Format: cell-based, Plasmodium falciparum

COC(=O)c1ccc(Oc2ccc3c(c2)B(O)OC3)cn1 [Compound 5, Methyl 5-(1-Hydroxy-1,3-dihydrobenzo[c][1,2]oxaborol-6-yloxy)picolinate]
fold more active than acid compound 4 (ester 5 vs acid 4, W2 and 3D7 strains): about 5 fold

CCN(CC)CCCC(C)Nc1ccnc2cc(Cl)ccc12 (centres unmarked) [chloroquine]
IC50 (Plasmodium falciparum, W2, 48 h, read-out: IC50 (nM) (W2)): 21 ± 6 nM
